Source: patent US10703764B2, “Benzopiperazine compositions as BET bromodomain inhibitors” (FORMA Therapeutics, Inc., priority 2013, dated 2020)
Like-named read-outs stand apart in the source and are kept apart here.

Legend:
BRD4 BD1 = molecular target: T1, BRD4 BD1 (Homo sapiens, UniProt O60885); experiment: AlphaScreen binding assay, BRD4 Bromodomain 1
T1 construct: made in house
In short: (§1)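 Compound dilution series were mixed with His-tagged BRD4 bromodomain and biotinylated tetra-acetylated H4 (1-21) peptide at pH 7.3 (BD1 and peptide at 50 nM, BD2 and peptide at 100 nM). Donor and acceptor beads were then added, and plates were equilibrated at least 1 h before reading. IC50 values were fitted with a four-parameter logistic model.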

BRD4 BD2 = molecular target: T2, BRD4 BD2 (Homo sapiens, UniProt O60885); experiment: AlphaScreen binding assay, BRD4 Bromodomain 2
T2 construct: made in house
In short: as §1

MV4-11 cells = experiment: Oncology cell growth assay (3-day proliferation, CellTiter-Glo); assay type: cell-based; settings: Homo sapiens, AML cell line MV4-11, 72 hours, compounds grouped by IC50 range, read-out: MV4-11 IC50 (inhibition of proliferation, gIC50)
In short: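 Luminescence from CellTiter-Glo served as the growth read-out after MV4-11 cells (3000/well) were cultured with compound for 72 hours. Final concentrations spanned 10 to 0.0045 μM in 3-fold steps. gIC50 values were derived by four-parameter logistic fitting relative to DMSO and cell-free controls.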

IC50 (BRD4 BD1)	IC50 (BRD4 BD2)	IC50 (MV4-11 cells; MV4-11, 72 h)	SMILES	IC50 (MV4-11 cells)
1000 to 10000 nM	50 to 500 nM	100 to 500 nM	CCN(CC)S(=O)(=O)c1cc(-c2ccc3c(c2)N(C(=O)C2CC2)C[C@H](C)N3C(C)=O)ccc1OC [Example I-1112]	
1000 to 10000 nM	50 to 500 nM	100 to 500 nM	CCN(CC)S(=O)(=O)c1cc(-c2ccc3c(c2)N(C(=O)C2CCC2)C[C@H](C)N3C(C)=O)ccc1OC [Example I-1113]	
100 to 1000 nM	50 to 500 nM	> 500 nM	CCOC(=O)N1C[C@H](C)N(C(C)=O)c2ccc(-c3ccc(OC)c(S(=O)(=O)N(CC)CC)c3)cc21 [Example I-1114]	
1000 to 10000 nM	50 to 500 nM	> 500 nM	CC(=O)N1c2ccc(-c3ccc(S(=O)(=O)n4cccn4)cc3)cc2N(C(=O)C2CCC2)C[C@@H]1C [Example I-1116]	
1000 to 10000 nM	50 to 500 nM	> 500 nM	CCOC(=O)N1C[C@H](C)N(C(C)=O)c2ccc(-c3ccc(S(=O)(=O)n4cccn4)cc3)cc21 [Example I-1117]	
1000 to 10000 nM	> 500 nM	> 500 nM	CC(=O)N1c2ccc(-c3ccc(S(=O)(=O)n4cccn4)cc3)cc2N(C(=O)OC(C)C)C[C@@H]1C [Example I-1118]	
1000 to 10000 nM	50 to 500 nM	100 to 500 nM	CCOC(=O)N1C[C@H](C)N(C(C)=O)c2ccc(-c3ccc(S(=O)(=O)NC)cc3)cc21 [Example I-1121]	
100 to 1000 nM	50 to 500 nM	100 to 500 nM	CNS(=O)(=O)c1ccc(-c2ccc3c(c2)N(C(=O)OC(C)C)C[C@H](C)N3C(C)=O)cc1 [Example I-1122]	
1000 to 10000 nM	50 to 500 nM	100 to 500 nM	CC(=O)N1c2ccc(-c3ccc(S(=O)(=O)N(C)C)cc3)cc2N(C(=O)C2CCC2)C[C@@H]1C [Example I-1124]	
1000 to 10000 nM	50 to 500 nM	100 to 500 nM	CCOC(=O)N1C[C@H](C)N(C(C)=O)c2ccc(-c3ccc(S(=O)(=O)N(C)C)cc3)cc21 [Example I-1125]	
1000 to 10000 nM	50 to 500 nM	100 to 500 nM	CC(=O)N1c2ccc(-c3ccc(S(=O)(=O)NC(C)(C)C)cc3)cc2N(C(=O)C2CC2)C[C@@H]1C [Example I-1127]	
1000 to 10000 nM	50 to 500 nM	100 to 500 nM	CCOC(=O)N1C[C@H](C)N(C(C)=O)c2ccc(-c3ccc(S(=O)(=O)NC(C)(C)C)cc3)cc21 [Example I-1129]	
1000 to 10000 nM	50 to 500 nM	100 to 500 nM	CC(=O)N1c2ccc(-c3ccc(N4CCCC4=O)cc3)cc2N(C(=O)C2CCC2)C[C@@H]1C [Example I-1132]	
100 to 1000 nM	50 to 500 nM	100 to 500 nM	CC(=O)N1c2ccc(-c3ccc(N4CCCC4=O)cc3)cc2N(C(=O)OC(C)C)C[C@@H]1C [Example I-1134]	
100 to 1000 nM	50 to 500 nM	100 to 500 nM	CCS(=O)(=O)Nc1ccc(-c2ccc3c(c2)N(C(=O)C2CC2)C[C@H](C)N3C(C)=O)cc1 [Example I-1135]	
100 to 1000 nM	50 to 500 nM	100 to 500 nM	CCNS(=O)(=O)c1ccc(-c2ccc3c(c2)N(C(=O)OCC)C[C@H](C)N3C(C)=O)cc1 [Example I-1137]	
1000 to 10000 nM	50 to 500 nM	100 to 500 nM	COc1ccc(-c2ccc3c(c2)N(C(=O)C2CC2)C[C@H](C)N3C(C)=O)cc1NS(C)(=O)=O [Example I-1139]	
100 to 1000 nM	50 to 500 nM	100 to 500 nM	CCOC(=O)N1C[C@H](C)N(C(C)=O)c2ccc(-c3ccc(OC)c(NS(C)(=O)=O)c3)cc21 [Example I-1141]	
100 to 1000 nM	50 to 500 nM	100 to 500 nM	COc1ccc(-c2ccc3c(c2)N(C(=O)OC(C)C)C[C@H](C)N3C(C)=O)cc1NS(C)(=O)=O [Example I-1142]	
< 100 nM	< 50 nM	< 100 nM	CC(=O)N1c2ccc(-c3cnn(C4CCOCC4)c3)cc2N(C(=O)OC2CCCC2)C[C@@H]1C [Example I-1147]	
100 to 1000 nM	50 to 500 nM	> 500 nM	CCOC(=O)N1C[C@H](C)N(C(C)=O)c2ccc(-c3ccc(N4CCCS4(=O)=O)c(F)c3)cc21 [Example I-1155]	

Further lines, the molecule ahead of its results:

SMILES	IC50 (BRD4 BD1)	IC50 (BRD4 BD2)	IC50 (MV4-11 cells; MV4-11, 72 h)	IC50 (MV4-11 cells)
CCOC(=O)N1C[C@H](C)N(C(C)=O)c2ccc(-c3cccc(S(=O)(=O)NCCO)c3)cc21 [Example I-1110]	1000 to 10000 nM	50 to 500 nM	100 to 500 nM	
CC(=O)N1c2ccc(-c3cccc(S(=O)(=O)NCCO)c3)cc2N(C(=O)OC(C)C)C[C@@H]1C [Example I-1111]	100 to 1000 nM	50 to 500 nM	100 to 500 nM	
CCN(CC)S(=O)(=O)c1cc(-c2ccc3c(c2)N(C(=O)OC(C)C)C[C@H](C)N3C(C)=O)ccc1OC [Example I-1115]	100 to 1000 nM	50 to 500 nM	100 to 500 nM	
CNS(=O)(=O)c1ccc(-c2ccc3c(c2)N(C(=O)C2CC2)C[C@H](C)N3C(C)=O)cc1 [Example I-1119]	1000 to 10000 nM	50 to 500 nM	100 to 500 nM	
CNS(=O)(=O)c1ccc(-c2ccc3c(c2)N(C(=O)C2CCC2)C[C@H](C)N3C(C)=O)cc1 [Example I-1120]	1000 to 10000 nM	50 to 500 nM	100 to 500 nM	
CC(=O)N1c2ccc(-c3ccc(S(=O)(=O)N(C)C)cc3)cc2N(C(=O)C2CC2)C[C@@H]1C [Example I-1123]	1000 to 10000 nM	50 to 500 nM	100 to 500 nM	
CC(=O)N1c2ccc(-c3ccc(S(=O)(=O)N(C)C)cc3)cc2N(C(=O)OC(C)C)C[C@@H]1C [Example I-1126]	1000 to 10000 nM	50 to 500 nM	100 to 500 nM	
CC(=O)N1c2ccc(-c3ccc(S(=O)(=O)NC(C)(C)C)cc3)cc2N(C(=O)C2CCC2)C[C@@H]1C [Example I-1128]	1000 to 10000 nM	50 to 500 nM	100 to 500 nM	
CC(=O)N1c2ccc(-c3ccc(S(=O)(=O)NC(C)(C)C)cc3)cc2N(C(=O)OC(C)C)C[C@@H]1C [Example I-1130]	100 to 1000 nM	50 to 500 nM	100 to 500 nM	
CC(=O)N1c2ccc(-c3ccc(N4CCCC4=O)cc3)cc2N(C(=O)C2CC2)C[C@@H]1C [Example I-1131]	1000 to 10000 nM	50 to 500 nM	100 to 500 nM	
CCOC(=O)N1C[C@H](C)N(C(C)=O)c2ccc(-c3ccc(N4CCCC4=O)cc3)cc21 [Example I-1133]	1000 to 10000 nM	50 to 500 nM	100 to 500 nM	
CCS(=O)(=O)Nc1ccc(-c2ccc3c(c2)N(C(=O)C2CCC2)C[C@H](C)N3C(C)=O)cc1 [Example I-1136]	100 to 1000 nM	50 to 500 nM	100 to 500 nM	
CCS(=O)(=O)Nc1ccc(-c2ccc3c(c2)N(C(=O)OC(C)C)C[C@H](C)N3C(C)=O)cc1 [Example I-1138]	100 to 1000 nM	50 to 500 nM	100 to 500 nM	
COc1ccc(-c2ccc3c(c2)N(C(=O)C2CCC2)C[C@H](C)N3C(C)=O)cc1NS(C)(=O)=O [Example I-1140]	1000 to 10000 nM	50 to 500 nM	100 to 500 nM	
CC(=O)N1c2ccc(-c3cccc(NS(=O)(=O)N(C)C)c3)cc2N(C(=O)C2CC2)C[C@@H]1C [Example I-1143]	1000 to 10000 nM	50 to 500 nM	100 to 500 nM	
CC(=O)N1c2ccc(-c3cccc(NS(=O)(=O)N(C)C)c3)cc2N(C(=O)C2CCC2)C[C@@H]1C [Example I-1144]	1000 to 10000 nM	50 to 500 nM	100 to 500 nM	
CCOC(=O)N1C[C@H](C)N(C(C)=O)c2ccc(-c3cccc(NS(=O)(=O)N(C)C)c3)cc21 [Example I-1145]	1000 to 10000 nM	50 to 500 nM	> 500 nM	
CC(=O)N1c2ccc(-c3cccc(NS(=O)(=O)N(C)C)c3)cc2N(C(=O)OC(C)C)C[C@@H]1C [Example I-1146]	100 to 1000 nM	50 to 500 nM	100 to 500 nM	
CC(=O)N1c2ccc(-c3cnn(C4CCCS(=O)(=O)C4)c3)cc2N(C(=O)OC2CCCC2)C[C@@H]1C (stereo partly drawn) [Example I-1148]	100 to 1000 nM	< 50 nM	100 to 500 nM	
CC(=O)N1c2ccc(-c3cnn(C4CCNCC4)c3)cc2N(C(=O)Oc2ccc(F)cc2)C[C@@H]1C [Example I-1149]	100 to 1000 nM	50 to 500 nM		< 100 nM
CC(=O)N1c2ccc(-c3cnn(C4CNC4)c3)cc2N(C(=O)Oc2ccc(F)cc2)C[C@@H]1C [Example I-1150]	100 to 1000 nM	< 50 nM		100 to 500 nM
COC(=O)N1c2ccc(-c3cnn(C4CCNCC4)c3)cc2N(C(=O)Oc2ccc(F)cc2)C[C@@H]1C [Example I-1151]	100 to 1000 nM	50 to 500 nM		100 to 500 nM
CC(=O)N1c2ccc(-c3cccc(N4CCCS4(=O)=O)c3)cc2N(C(=O)C2CC2)C[C@@H]1C [Example I-1152]	1000 to 10000 nM	50 to 500 nM	100 to 500 nM	
CC(=O)N1c2ccc(-c3cccc(N4CCCS4(=O)=O)c3)cc2N(C(=O)OC(C)C)C[C@@H]1C [Example I-1153]	100 to 1000 nM	50 to 500 nM	100 to 500 nM	
CC(=O)N1c2ccc(-c3ccc(N4CCCS4(=O)=O)c(F)c3)cc2N(C(=O)C2CCC2)C[C@@H]1C [Example I-1154]	1000 to 10000 nM	50 to 500 nM	> 500 nM	
CC(=O)N1c2ccc(-c3ccc(N4CCCS4(=O)=O)c(F)c3)cc2N(C(=O)OC(C)C)C[C@@H]1C [Example I-1156]	100 to 1000 nM	50 to 500 nM	100 to 500 nM	
